Data: patent US8604206B2, “Compositions for preventing and/or treating degenerative disorders of the central nervous system” (Amicus Therapeutics, Inc., priority 2009, dated 2013)

Columns and labels:
[1] = Compound concentration in tissue of mice of the GCase enhancement study; assay type: in vivo, mouse; conditions: 9 doses, 24-hour washout
Description: The dosing solutions were prepared in water. Compounds were administered over 2 weeks as follows: week 1, Mon-Fri (On), Sat-Sun (Off); week 2, Mon-Thu (On); necropsy on Friday. Thus, a total of 9 doses (dosing solutions prepared fresh every day) were given to each mouse, with a 24-hour washout between the last dose and necropsy.
(§1) Plasma was collected by spinning blood at 2700 g for 10 minutes at 4° C. Liver, spleen, lung, and brain tissues were removed, washed in cold PBS, blotted dry, flash frozen on dry ice, and stored at −80° C. until analysis. GCase levels were measured by homogenizing approximately 50 mg tissue in 500 μL McIlvane (MI) buffer (100 mM sodium citrate, 200 mM sodium phosphate dibasic, 0.25% sodium taurocholate, and 0.1% Triton X-100, pH 5.2) at pH 5.2 for 3-5 seconds on ice with a micro homogenizer. Homogenates were then incubated at room temperature without and with 2.5 mM conduritol-B-epoxide (CBE) for 30 min. Finally, 3.7 mM 4-methylumbeliferryl-β-glucoside (4-MUG) substrate was added and incubated at 37° C. for 60 min. […] Fluorescence was measured on a plate reader for 1 sec/well using 355 nm excitation and 460 nm emission. Total protein was determined in lysates using the MicroBCA kit according to the manufacturer's instructions. A 4-methylumbelliferone (4-MU) standard curve ranging from 1.0 nM to 50 μM was run in parallel for conversion of raw fluorescence data to absolute GCase activity (in the presence and absence of CBE) and expressed as nanomoles of 4-MU released per milligram of protein per hour (nmol/mg protein/hr). GCase levels and protein levels were calculated using Microsoft Excel (Redmond, Wash.) and GraphPad Prism version 4.02.

[2] = target: GCase (Homo sapiens (Human), UniProt P04062); assay: GCase activity enhancement (EC50, Emax) of Table 2B; assay type: cell-based; conditions: for increase in GCase activity compared to IFG-tartrate: compared to reference compound IFG-tartrate
[3] = target: lysosomal GCase (Homo sapiens (Human), UniProt P04062); assay: In situ lysosomal GCase inhibition and washout assay in fibroblasts from a normal subject; assay type: cell-based; conditions: for IC50: fibroblasts, 16-24 hours with compound, PFBFDβGlu substrate; for in situ washout from the lysosomal compartment compared to IFG-tartrate: compared to reference compound IFG-tartrate; for in situ washout: fibroblasts treated at IC90, then drug-free medium
Description: The effect of the novel compounds of the present invention on lysosomal GCase activity was assayed in situ using fibroblasts established from a normal subject. Cells seeded in 48-well plates were incubated with the indicated concentrations of compound for 16-24 hours. For the dose-response assays, cells were incubated with the in situ substrate 5-(pentafluorobenzoylamino)fluorescein di-β-D-glucopyranoside (PFBFDβGlu) for 1 hour and subsequently lysed to determine the extent of substrate hydrolysis in the presence of compound. […] Inhibition was determined as the ratio of activity in the presence of compound to that in the absence of compound. […] Cells were washed extensively and incubated in drug-free medium to allow net compound efflux from cells. Cells were then tested for lysosomal GCase activity at 2 hour intervals over a total period of 8 hours following compound removal. The increase in activity over time was fitted with a single exponential function to determine the compound's washout time.

[4] = target: GCase (Mus musculus, UniProt P17439); assay: GCase enhancement in tissues of orally dosed mice; assay type: in vivo; conditions: 9 doses over 2 weeks; for GCase increase (fold): 24-hour washout; for GCase enhancement in brain and spleen: mice, p.o.
Description: The ability of orally administered test compounds ((3R,4R,5S)-5-(difluoromethyl)piperidine-3,4-diol, (3R,4R,5S)-5-(1-fluoroethyl)piperidine-3,4-diol, (3R,4R,5S)-5-((R)-1-fluoropropyl)piperidine-3,4-diol hydrochloride, or (3R,4R,5S)-5-benzylpiperidine-3,4-diol) to elevate GCase levels was assessed in mice. For this purpose, 8-week old wild-type male mice (C57BL/6) were administered a […] p.o. (gavage) dose of a compound of the present invention (i.e., (3R,4R,5S)-5-(difluoromethyl)piperidine-3,4-diol, (3R,4R,5S)-5-(1-fluoroethyl)piperidine-3,4-diol, (3R,4R,5S)-5-((R)-1-fluoropropyl)piperidine-3,4-diol hydrochloride, or (3R,4R,5S)-5-benzylpiperidine-3,4-diol). The dosing solutions were prepared in water. Compounds were administered over 2 weeks as follows: week 1, Mon-Fri (On), Sat-Sun (Off); week 2, Mon-Thu (On); necropsy on Friday. Thus, a total of 9 doses (dosing solutions prepared fresh every day) were given to each mouse, with a 24-hour washout between the last dose and necropsy.
as §1

[5] = Blood brain barrier penetration, plasma and brain levels after oral administration; assay type: in vivo, mouse; conditions: mice, single 30 mg/kg (free base equivalent) p.o.
Description: For this purpose, 8-week old wild-type male mice (C57BL/6) were administered a single 30 mg/kg (free base equivalent) p.o. dose of reference or test compound by gavage (n=3 mice per time point). Dosing solutions were prepared in water. After dosing, mice were euthanized with CO2 at the following time points: 0-, 0.5-, 1-, and 4-hour post-dose. […] Similarly, brains were collected from each mouse. Plasma was derived by spinning whole blood at 2,700×g for 10 minutes at 4° C. followed by storage on dry ice. Whole brains were washed in cold PBS to remove contaminating blood, blotted dry, flash frozen on dry ice, and ultimately stored at −80° C. until analysis. To prepare brain samples for analysis, 50-100 mg of tissue was homogenized in […] of water/mg tissue. Samples were then clarified by centrifugation. Next, 25 μl of the brain homogenate supernatant or 25 μl of plasma were combined with 25 μl of acetonitrile:water (95/5). […] Samples were again clarified by centrifugation and 75 μl of the supernatant was combined with 75 μl of acetonitrile. Samples were then analyzed for compound levels by LC-MS/MS at PPD Inc. (3230 Deming Way, Middleton, Wis. 53562). In brief, a Thermo Betasil, Silica-100, 50×3 mm, 5μ column equilibrated with a mixture of mobile phase consisting of 5 mM ammonium formate and 0.05% formic acid in (A) 95:5 acetonitrile:water or (B) 70:20:10 methanol:water:acetonitrile was employed. Between 20 and 30 μl sample was injected for analysis. For calculating drug concentrations, raw data for plasma (ng/mL) and brain (ng/g) was converted to nM using the molecular weight of respective compounds and assuming 1 g of tissue is equivalent to 1 mL volume. Concentration as a function of time was plotted in GraphPad Prism version 4.02.

Chain of lysosomal GCase (P04062 40-536): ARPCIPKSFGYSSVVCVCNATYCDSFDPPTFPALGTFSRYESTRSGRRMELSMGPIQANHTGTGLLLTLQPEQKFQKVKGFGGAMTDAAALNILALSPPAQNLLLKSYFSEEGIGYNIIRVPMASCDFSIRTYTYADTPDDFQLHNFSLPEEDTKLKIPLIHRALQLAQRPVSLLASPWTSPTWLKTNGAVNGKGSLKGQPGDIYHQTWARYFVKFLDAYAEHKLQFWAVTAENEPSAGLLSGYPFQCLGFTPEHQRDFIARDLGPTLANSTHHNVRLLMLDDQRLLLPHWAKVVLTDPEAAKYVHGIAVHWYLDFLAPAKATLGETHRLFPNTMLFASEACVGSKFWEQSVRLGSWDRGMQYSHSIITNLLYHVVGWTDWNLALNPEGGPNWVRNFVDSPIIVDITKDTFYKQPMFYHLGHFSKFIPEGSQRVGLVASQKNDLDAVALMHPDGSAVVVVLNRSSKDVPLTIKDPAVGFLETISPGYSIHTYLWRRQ
Chain of GCase (Homo sapiens (Human), UniProt P04062) (P04062 40-536): as above
Chain of GCase (Mus musculus, UniProt P17439) (P17439 20-515 limits assumed): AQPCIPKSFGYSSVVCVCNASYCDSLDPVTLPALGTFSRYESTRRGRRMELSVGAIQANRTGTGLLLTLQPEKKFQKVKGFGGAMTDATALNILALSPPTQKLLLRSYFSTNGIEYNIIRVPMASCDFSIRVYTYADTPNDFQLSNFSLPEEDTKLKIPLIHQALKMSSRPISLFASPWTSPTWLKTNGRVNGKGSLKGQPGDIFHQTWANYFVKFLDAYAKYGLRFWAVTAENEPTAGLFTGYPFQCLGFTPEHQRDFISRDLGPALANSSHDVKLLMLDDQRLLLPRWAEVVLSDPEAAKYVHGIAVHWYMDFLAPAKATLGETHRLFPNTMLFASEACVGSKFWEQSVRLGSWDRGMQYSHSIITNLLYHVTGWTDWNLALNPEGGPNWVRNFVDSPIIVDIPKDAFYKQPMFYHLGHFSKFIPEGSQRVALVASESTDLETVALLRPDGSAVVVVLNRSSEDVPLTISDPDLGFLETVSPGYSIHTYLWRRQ

Structure (SMILES) | Compound concentration in tissue ([1]; brain, 10 mg/kg FBE p.o.) | Compound concentration in tissue ([1]; brain, 100 mg/kg FBE p.o.) [nmol/kg] | Compound concentration in tissue ([1]; spleen, 10 mg/kg FBE p.o.) [nmol/kg] | Compound concentration in tissue ([1]; spleen, 100 mg/kg FBE p.o.) [nmol/kg] | EC50 [2] [nM] | increase in GCase activity compared to IFG-tartrate [2] | inhibition of GCase activity [3] | IC50 [3] [nM] | GCase increase (fold) ([4]; brain, 10 mg/kg FBE p.o.) | GCase increase (fold) ([4]; brain, 100 mg/kg FBE p.o.) | GCase increase (fold) ([4]; spleen, 10 mg/kg FBE p.o.) | GCase increase (fold) ([4]; spleen, 100 mg/kg FBE p.o.) | blood brain barrier crossing compared to IFG-tartrate [5] | levels detected in brain compared to IFG-tartrate [5] | in situ washout from the lysosomal compartment compared to IFG-tartrate [3] | in situ washout [3] [h] | GCase enhancement in brain and spleen [4]
CC[C@@H](F)[C@H]1CNC[C@@H](O)[C@@H]1O.Cl [(3R,4R,5S)-5-((R)-1-fluoropropyl)-piperidine-3,4-diol hydrochloride] | BLQ(2) (BLQ < 2.2 nmol/kg) | 38 | 21 | 60 | 86 ± 2 | enhanced enzyme activity to the same maximum level as reference compound IFG-tartrate at much lower concentration | inhibited GCase activity | 972 ± 201 | 0.9 | 1.1 | 0.7 | 0.7 | crossed the blood brain barrier more readily as compared to IFG-tartrate | higher levels |  |  | 
O[C@@H]1[C@@H](Cc2ccccc2)CNC[C@H]1O [(3R,4R,5S)-5-benzyl-piperidine-3,4-diol] |  |  |  |  | 180 ± 10 | enhanced enzyme activity to the same maximum level as reference compound IFG-tartrate at much lower concentration | inhibited GCase activity | 1300 ± 323 | 1.2 | 1.4 | 1.0 | 1.2 | crossed the blood brain barrier more readily as compared to IFG-tartrate | higher levels | considerably faster than reference compound IFG-tartrate | 1.2 ± 0.13 | significant GCase enhancement in brain and spleen
Cl.O[C@H]1[C@H](O)CNC[C@@H]1C(F)F [Cmpd 6, (3R,4R,5S)-5-(Difluoromethyl)piperidine 3,4-diol Hydrochloride] | 55 nmol/kg | 301 | 100 | 435 |  | enhanced enzyme activity to the same maximum level as reference compound IFG-tartrate at much lower concentration | inhibited GCase activity |  |  |  |  |  | crossed the blood brain barrier more readily as compared to IFG-tartrate | higher levels | considerably faster than reference compound IFG-tartrate | 2.1 ± 0.30 | significant GCase enhancement in brain and spleen
